Paper PMC7460063, “Unique Polyhalogenated Peptides from the Marine Sponge Ircinia sp” (Marine Drugs, 2020)
Non-standard residues stand in square brackets, D forms with d. Residues, ends and D or L forms follow the SMILES beside them. *: point of attachment. X1 = Cn1c(Br)c(Br)c(Br)c1C(=O)*; NMeL = CN[C@@H](CC(C)C)C(=O)O

Columns and labels:
four cancer cell lines [1] = conditions: cited for comparison with 1 and 2; cited from earlier work
Experimental: In summary, two new peptides bearing unprecedented halogenated moieties, haloirciniamide A (1) and seribunamide A (2), were isolated from a marine sponge belonging to the Irnicia genus, which was selected for further studies. The sample was collected around the Thousand Islands (Indonesia) by the Pharmamar expedition team in collaboration with the Research Center for Oceanography, Indonesian Institute of Sciences (RCO-LIPI). The planar structures of the novel compounds were determined by a combination of extensive NMR and HPLC-MS experiments. The absolute configuration was achieved by Marfey’s ...

HT-29 = experiment: Cytotoxic activity against colon tumor cell line HT-29; format: cell-based; conditions: HT-29 (colon), human tumor cell line
four cancer cell lines [2] = experiment: Cytotoxic activity, four cancer cell lines (summary); format: cell-based, human; conditions: four cancer cell lines: A-549, HT-29, MDA-MB-231, PSN-1
topoisomerase I = experiment: Topoisomerase I inhibition; format: biochemical
A-549 = experiment: Cytotoxic activity against lung tumor cell line A-549; format: cell-based; conditions: A-549 (lung), human tumor cell line
PSN-1 = experiment: Cytotoxic activity against pancreas tumor cell line PSN-1; format: cell-based; conditions: PSN-1 (pancreas), human tumor cell line
[3] = tested on: interaction between the programmed cell death protein PD-1 and its natural ligand PDL1; experiment: Cell-based assay of PD-1/PDL1 interaction; conditions: for %Inhibition at 1 × 10^−5 M (PD-1): final readout dependent on the interaction between PD-1 and PDL1; for impairment of PD-1/PDL1 interaction: final readout dependent on the interaction between the two proteins
MDA-MB-231 = experiment: Cytotoxic activity against breast tumor cell line MDA-MB-231; format: cell-based; conditions: MDA-MB-231 (breast), human tumor cell line

Molecule | cytotoxic activity (words, comparison compound gunungamide A) (four cancer cell lines [1]) | GI50 (HT-29) | cytotoxic activity (four cancer cell lines [2]) | %Inhibition at 1 × 10^−5 M (Top-I) (topoisomerase I; 1 × 10^−5 M) | inhibition of topoisomerase I (topoisomerase I; 1.0 × 10^−5 M) | GI50 (A-549) | GI50 (PSN-1) | %Inhibition at 1 × 10^−5 M (PD-1) [3] | impairment of PD-1/PDL1 interaction [3] | GI50 (MDA-MB-231) | cytotoxic activity (words, comparison compound cyclocinamide B) (four cancer cell lines [1])
gunungamide A | not observed |  |  |  |  |  |  |  |  |  | 
CN1C(=O)C[C@H](C(N)=O)NC(=O)[C@@H](O)CNC(=O)[C@H](CNC(=O)c2cc(Br)c(Br)[nH]2)NC(=O)[C@H](CN)NC(=O)C1Cc1cnc(Cl)[nH]1 (stereo partly drawn) [Compound 1, haloirciniamide A] |  | > 12 µM | not observed | 3% | no inhibition of the enzyme | > 12 µM | > 12 µM | 0.3% | unable to impair the interaction | > 12 µM | 
CC[C@H](C)[C@H](NC(=O)c1c(Br)c(Br)c(Br)n1C)C(=O)N(C)[C@@H](CC(C)C)C(=O)N1CCC[C@H]1C(=O)N[C@@H](CCC(N)=O)C(=O)O [Compound 2, seribunamide A] (X1-I[NMeL]PQ-OH) |  | > 12 µM | not observed |  |  | > 12 µM | > 12 µM | −3.5% | unable to impair the interaction | > 12 µM | 
cyclocinamide B |  |  |  |  |  |  |  |  |  |  | not observed
